Measurements reported in PMC11861015, “Discovery of novel naphthalene-based diarylamides as pan-Raf kinase inhibitors with promising anti-melanoma activity: rational design, synthesis, in vitro and in silico screening” (Archives of Pharmacal Research, 2025).

What was measured:
[1] = target: Raf kinase enzyme; parameters: method as in Buchstaller et al. [2011]; settings: ref Buchstaller et al. [2011]; read-out: IC50 against the Raf kinase enzyme; cited from earlier work
[2] = test system: melanoma cell line A375; assay: Apoptosis analysis (PE-Annexin V / DAPI); settings: dosage close to IC50, dot plot
From the text: PE-conjugated Annexin V maintains its strong binding to phosphatidylserine (PS), serving as a sensitive marker for flow cytometric assessment of apoptotic cells. The staining with PE Annexin V precedes the loss of membrane integrity observed in the later phases of cell death, whether induced by apoptotic or necrotic processes. Therefore, PE Annexin V staining is commonly employed alongside a vital dye like propidium iodide (PI) or DAPI. This combination allows researchers to distinguish early apoptotic cells (DAPI negative, PE Annexin V positive) from viable cells with intact membranes, which exclude DAPI. In contrast, the membranes of dead or damaged cells become permeable to DAPI. […] The sequential movement of cells through these stages serves as an indicative pattern of apoptosis.
For a more appropriate investigation of cell death, the compound-treated cells and control A375 cells were stained with PE-Annexin V and DAPI. […] A kind of controlled cell death known as apoptosis may be identified with the use of Annexin V and the DAPI reagent. These two fluorophores are used in the dot plot and image data to identify early and late apoptotic cells.

[3] = test system: melanoma cell line A375; assay: Cell cycle analysis; settings: A375 cells treated at IC50
[4] = target: T1, B-Raf^WT (Homo sapiens, UniProt P15056); assay: In vitro biochemical kinase assay (Kinase HotSpot, Reaction Biology), one-point and 10-dose; settings: ATP 10 μM; for inhibition at 10 µM: 10 µM compound, duplicate, read-out: In vitro protein kinase inhibition values (%) B-Raf^WT
T1 construct: purchased Reaction Biology Co. (Kinase HotSpot service)

[5] = target: T2, B-Raf^V600E (Homo sapiens, UniProt P15056, V600E); assay: as above; settings: ATP 10 μM; for inhibition at 10 µM: 10 µM compound, duplicate, read-out: In vitro protein kinase inhibition values (%) B-Raf^V600E
T2 construct: purchased Reaction Biology Co. (Kinase HotSpot service)

[6] = target: c-Raf (Homo sapiens, UniProt P04049); assay: as above; settings: ATP 10 μM; for inhibition at 10 µM: 10 µM compound, duplicate, read-out: In vitro protein kinase inhibition values (%) c-Raf
[7] = target: T3, ROS/ROS1 (Homo sapiens, UniProt P08922); assay: Kinase selectivity assay, one-point; format: biochemical; settings: 10 µM compound, duplicate, ATP 10 μM
T3 construct: purchased Reaction Biology Co. (Kinase HotSpot service)
Experimental: (§1) The in vitro kinase inhibitory assays (both one-point and ten-point assays) were performed at Reaction Biology Co. (Malvern, PA, USA). Kinase HotSpot service was used for screening the tested derivatives. The experiment protocol is previously described in detail (Elkamhawy et al. [2016]).
(§2) No significant inhibition was observed over the other tested kinases.

[8] = target: T4, ALK (Homo sapiens, UniProt Q9UM73); assay: Kinase selectivity assay, one-point; format: biochemical; settings: 10 µM compound, duplicate, ATP 10 μM
T4 construct: purchased Reaction Biology Co. (Kinase HotSpot service)
Experimental: as §1, §2

[9] = target: T5, mTOR/FRAP1 (Homo sapiens, UniProt P42345); assay: Kinase selectivity assay, one-point; format: biochemical; settings: 10 µM compound, duplicate, ATP 10 μM
T5 construct: purchased Reaction Biology Co. (Kinase HotSpot service)
Experimental: as §1, §2

[10] = target: T6, TRKB (Homo sapiens, UniProt Q16620); assay: Kinase selectivity assay, one-point; format: biochemical; settings: 10 µM compound, duplicate, ATP 10 μM
T6 construct: purchased Reaction Biology Co. (Kinase HotSpot service)
Experimental: as §1, §2

[11] = target: T7, FGFR1 (Homo sapiens, UniProt P11362); assay: Kinase selectivity assay, one-point; format: biochemical; settings: 10 µM compound, duplicate, ATP 10 μM
T7 construct: purchased Reaction Biology Co. (Kinase HotSpot service)
Experimental: as §1, §2

[12] = target: T8, ERK2/MAPK1 (Homo sapiens, UniProt P28482); assay: Kinase selectivity assay, one-point; format: biochemical; settings: 10 µM compound, duplicate, ATP 10 μM
T8 construct: purchased Reaction Biology Co. (Kinase HotSpot service)
Experimental: as §1, §2

[13] = test system: human melanoma cell line (A375); assay: In vitro cytotoxic activity (MTT assay); format: cell-based; settings: for IC50: Homo sapiens, A-375, A375 cells, read-out: IC50 values (μM) against A375
Experimental: Melanoma skin cancer cell line (A375) of American Type Culture Collection (ATCC) was obtained from Korean Cell Line Bank (KCLB). The A375 cells were cultured in Dulbecco’s modified eagle’s medium (DMEM) (GenDepot) supplemented with 1% penicillin–streptomycin and 10% fetal bovine serum (FBS). The cells were maintained at 37 °C in a 5% CO2 with a 95% humid atmosphere. MTT assay, analysis of the cell cycle distribution, apoptosis analysis, and statistical analysis were carried out following known standard protocols adopted by our team earlier (Son et al. [2023]). […]

[14] = test system: Raf kinase enzymes (B-Raf^WT, B-Raf^V600E, and c-Raf); assay: One-point kinase assay, summary across Raf kinases; format: biochemical; settings: 10 μM compound, ATP 10 μM, span over B-Raf^WT
Experimental: as §1
To evaluate the new structural design of our compounds (9a–i), the biochemical activity was evaluated against Raf kinase enzymes (B-Raf^WT, B-Raf^V600E, and c-Raf) in one-point dose (10 μM) at duplicate mode using ATP concentration 10 μM. The results are presented in Table 2 and expressed in % inhibition.

[15] = 10-dose, threefold serial dilution from 20 μM

Chain of c-Raf (P04049 whole entry): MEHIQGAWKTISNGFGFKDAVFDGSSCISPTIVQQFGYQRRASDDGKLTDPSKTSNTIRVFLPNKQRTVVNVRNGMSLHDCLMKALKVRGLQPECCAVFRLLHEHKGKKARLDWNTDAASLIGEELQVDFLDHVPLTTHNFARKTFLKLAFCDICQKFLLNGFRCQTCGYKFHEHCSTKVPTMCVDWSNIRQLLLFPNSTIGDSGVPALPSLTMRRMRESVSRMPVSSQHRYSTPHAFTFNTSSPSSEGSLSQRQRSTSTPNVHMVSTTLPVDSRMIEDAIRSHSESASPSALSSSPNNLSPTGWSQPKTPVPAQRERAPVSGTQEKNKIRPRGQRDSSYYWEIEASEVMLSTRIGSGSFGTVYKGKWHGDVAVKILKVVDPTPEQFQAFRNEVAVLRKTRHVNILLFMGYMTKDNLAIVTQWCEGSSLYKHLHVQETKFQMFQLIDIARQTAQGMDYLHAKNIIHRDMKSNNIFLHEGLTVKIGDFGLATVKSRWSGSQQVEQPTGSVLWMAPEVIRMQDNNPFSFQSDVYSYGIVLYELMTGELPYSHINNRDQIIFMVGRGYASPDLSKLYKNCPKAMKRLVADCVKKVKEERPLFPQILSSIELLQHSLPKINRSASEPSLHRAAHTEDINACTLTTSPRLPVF
T1 sequence (P15056 whole entry): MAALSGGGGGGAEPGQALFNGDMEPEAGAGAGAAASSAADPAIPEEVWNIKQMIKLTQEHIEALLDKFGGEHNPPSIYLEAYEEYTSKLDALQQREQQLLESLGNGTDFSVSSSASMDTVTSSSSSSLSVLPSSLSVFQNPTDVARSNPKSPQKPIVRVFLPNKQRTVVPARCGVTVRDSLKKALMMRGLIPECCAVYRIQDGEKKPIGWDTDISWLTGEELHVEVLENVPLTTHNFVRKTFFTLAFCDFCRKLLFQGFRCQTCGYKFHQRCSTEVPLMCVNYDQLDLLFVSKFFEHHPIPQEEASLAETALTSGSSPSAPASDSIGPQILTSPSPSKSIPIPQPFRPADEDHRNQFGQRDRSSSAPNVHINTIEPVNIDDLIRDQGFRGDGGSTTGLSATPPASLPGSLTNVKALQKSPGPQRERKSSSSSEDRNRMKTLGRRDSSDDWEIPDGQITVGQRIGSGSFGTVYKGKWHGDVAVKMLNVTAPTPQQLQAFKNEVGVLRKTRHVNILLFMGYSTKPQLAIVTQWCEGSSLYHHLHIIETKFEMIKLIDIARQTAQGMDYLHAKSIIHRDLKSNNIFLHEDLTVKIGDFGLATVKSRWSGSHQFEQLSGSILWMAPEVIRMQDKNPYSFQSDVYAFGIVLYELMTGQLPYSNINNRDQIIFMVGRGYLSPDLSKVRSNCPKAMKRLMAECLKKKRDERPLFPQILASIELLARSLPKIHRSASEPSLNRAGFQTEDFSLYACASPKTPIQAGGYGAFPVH
T2 sequence (P15056 whole entry V600E): as the sequence (P15056 whole entry) above, with V600E counted along it
T3 sequence (P08922 28-2347): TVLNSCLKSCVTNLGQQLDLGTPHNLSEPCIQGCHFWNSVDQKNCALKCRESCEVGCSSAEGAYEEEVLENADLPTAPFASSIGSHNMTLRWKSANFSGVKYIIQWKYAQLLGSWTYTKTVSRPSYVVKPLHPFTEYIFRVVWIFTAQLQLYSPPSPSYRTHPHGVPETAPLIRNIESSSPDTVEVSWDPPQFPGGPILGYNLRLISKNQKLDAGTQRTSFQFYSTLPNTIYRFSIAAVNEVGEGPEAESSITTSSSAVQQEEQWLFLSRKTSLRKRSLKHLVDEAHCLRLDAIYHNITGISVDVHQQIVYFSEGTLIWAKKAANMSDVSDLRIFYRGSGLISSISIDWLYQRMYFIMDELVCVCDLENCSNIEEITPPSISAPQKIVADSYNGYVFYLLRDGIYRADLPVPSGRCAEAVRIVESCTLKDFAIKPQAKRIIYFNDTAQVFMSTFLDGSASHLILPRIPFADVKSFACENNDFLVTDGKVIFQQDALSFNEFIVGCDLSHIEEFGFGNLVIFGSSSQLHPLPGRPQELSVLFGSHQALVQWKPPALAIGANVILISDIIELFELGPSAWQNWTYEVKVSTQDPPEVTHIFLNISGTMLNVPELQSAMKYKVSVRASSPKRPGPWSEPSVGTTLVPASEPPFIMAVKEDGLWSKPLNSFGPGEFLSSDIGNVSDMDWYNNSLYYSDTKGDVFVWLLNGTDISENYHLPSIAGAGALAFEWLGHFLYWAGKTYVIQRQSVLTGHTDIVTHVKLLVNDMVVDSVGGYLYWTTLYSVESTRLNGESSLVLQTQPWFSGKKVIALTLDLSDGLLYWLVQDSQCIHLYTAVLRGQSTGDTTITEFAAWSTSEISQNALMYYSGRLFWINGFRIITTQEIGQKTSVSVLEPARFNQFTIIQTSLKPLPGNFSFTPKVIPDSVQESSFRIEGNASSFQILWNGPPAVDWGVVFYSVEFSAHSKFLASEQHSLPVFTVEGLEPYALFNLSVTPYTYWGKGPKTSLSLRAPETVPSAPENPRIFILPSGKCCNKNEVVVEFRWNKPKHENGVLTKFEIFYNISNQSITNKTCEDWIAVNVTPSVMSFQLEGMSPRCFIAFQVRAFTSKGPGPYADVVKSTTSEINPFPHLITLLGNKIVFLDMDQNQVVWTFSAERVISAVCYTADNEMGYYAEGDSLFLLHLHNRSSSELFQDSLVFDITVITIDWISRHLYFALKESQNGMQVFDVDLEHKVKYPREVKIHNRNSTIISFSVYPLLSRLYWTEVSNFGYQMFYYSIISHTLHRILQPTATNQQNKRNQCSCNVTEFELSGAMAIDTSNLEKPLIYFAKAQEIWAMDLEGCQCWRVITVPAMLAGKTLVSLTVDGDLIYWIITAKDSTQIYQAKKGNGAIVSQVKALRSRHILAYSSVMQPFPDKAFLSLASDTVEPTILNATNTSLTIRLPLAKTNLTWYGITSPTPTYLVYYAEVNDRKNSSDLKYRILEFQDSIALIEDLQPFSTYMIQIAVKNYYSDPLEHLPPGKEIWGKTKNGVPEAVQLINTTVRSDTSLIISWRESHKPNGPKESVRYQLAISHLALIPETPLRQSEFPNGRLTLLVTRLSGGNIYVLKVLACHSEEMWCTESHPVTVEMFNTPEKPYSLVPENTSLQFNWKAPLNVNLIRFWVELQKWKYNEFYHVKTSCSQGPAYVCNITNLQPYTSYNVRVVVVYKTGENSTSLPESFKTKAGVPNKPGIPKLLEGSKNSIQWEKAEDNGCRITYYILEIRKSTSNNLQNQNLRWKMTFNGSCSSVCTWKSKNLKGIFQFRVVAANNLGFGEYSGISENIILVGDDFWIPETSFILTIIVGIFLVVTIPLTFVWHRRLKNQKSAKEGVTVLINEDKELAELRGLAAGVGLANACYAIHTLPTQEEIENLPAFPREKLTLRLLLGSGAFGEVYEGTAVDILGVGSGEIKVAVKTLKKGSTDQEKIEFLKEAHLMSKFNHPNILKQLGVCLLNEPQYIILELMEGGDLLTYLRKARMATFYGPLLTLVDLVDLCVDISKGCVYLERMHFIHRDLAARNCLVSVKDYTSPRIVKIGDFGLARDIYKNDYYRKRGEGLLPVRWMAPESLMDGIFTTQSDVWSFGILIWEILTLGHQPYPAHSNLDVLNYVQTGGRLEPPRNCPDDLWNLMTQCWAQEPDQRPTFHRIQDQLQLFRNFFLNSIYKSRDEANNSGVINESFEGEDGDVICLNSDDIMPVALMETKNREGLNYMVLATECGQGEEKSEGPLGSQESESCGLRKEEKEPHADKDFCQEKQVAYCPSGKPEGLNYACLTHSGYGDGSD
T6 sequence (Q16620 32-822): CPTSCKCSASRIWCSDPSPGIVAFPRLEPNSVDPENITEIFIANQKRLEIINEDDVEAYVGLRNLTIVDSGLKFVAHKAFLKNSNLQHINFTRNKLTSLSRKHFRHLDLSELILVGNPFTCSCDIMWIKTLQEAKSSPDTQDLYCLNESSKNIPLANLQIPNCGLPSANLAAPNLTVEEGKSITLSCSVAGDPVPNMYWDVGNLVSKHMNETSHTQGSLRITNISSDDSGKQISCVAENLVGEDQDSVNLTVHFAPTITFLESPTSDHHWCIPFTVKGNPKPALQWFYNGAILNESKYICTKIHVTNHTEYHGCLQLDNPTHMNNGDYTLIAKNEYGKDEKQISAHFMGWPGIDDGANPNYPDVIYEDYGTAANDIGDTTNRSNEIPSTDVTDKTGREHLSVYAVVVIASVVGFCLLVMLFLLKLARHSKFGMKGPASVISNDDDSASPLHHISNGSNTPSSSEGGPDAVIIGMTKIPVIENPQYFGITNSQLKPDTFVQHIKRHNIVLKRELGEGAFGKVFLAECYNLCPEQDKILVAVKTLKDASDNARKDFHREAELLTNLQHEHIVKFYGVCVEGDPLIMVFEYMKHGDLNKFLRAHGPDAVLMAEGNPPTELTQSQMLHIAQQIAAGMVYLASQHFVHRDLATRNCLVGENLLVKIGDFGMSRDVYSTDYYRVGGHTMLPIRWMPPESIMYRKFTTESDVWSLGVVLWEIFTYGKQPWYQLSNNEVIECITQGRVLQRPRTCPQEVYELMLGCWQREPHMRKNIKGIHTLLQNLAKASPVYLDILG
T8 sequence (P28482 whole entry): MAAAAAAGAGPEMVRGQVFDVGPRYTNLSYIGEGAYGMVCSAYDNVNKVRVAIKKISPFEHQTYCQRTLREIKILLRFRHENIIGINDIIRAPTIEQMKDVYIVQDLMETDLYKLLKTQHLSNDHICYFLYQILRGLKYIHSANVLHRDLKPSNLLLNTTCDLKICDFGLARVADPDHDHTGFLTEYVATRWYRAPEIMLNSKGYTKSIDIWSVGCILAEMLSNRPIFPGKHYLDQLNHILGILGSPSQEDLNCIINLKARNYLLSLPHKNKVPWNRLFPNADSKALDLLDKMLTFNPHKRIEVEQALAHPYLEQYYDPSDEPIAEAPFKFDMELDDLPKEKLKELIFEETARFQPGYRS

Row | Compound | inhibition at 10 µM [4] | inhibition at 10 µM [5] | inhibition at 10 µM [6] | IC50 [13] | other results
1 | CNC(=O)c1cc2ccc(CCNC(=O)Nc3cc(C(F)(F)F)c(Cl)cc3OC)cc2cn1 [Compound 4] |  |  |  |  | IC50 [1]: 80 nM
2 | CNC(=O)c1cc(Oc2ccc3c(C(=O)Nc4cccc(OC(F)F)c4)cccc3c2)ccn1 [Compound 9a, 4-((5-((3-(Difluoromethoxy)phenyl)carbamoyl)naphthalen-2-yl)oxy)-N-methylpicolinamide] | 99.4% | 100% | 99.8% | 0.12 ± 0.013 µM | N quadrant cells [2]: 6.69%; early apoptosis (E.A) cells [2]: 9.11%; late apoptosis (L.A) cells [2]: 3.54%; live (L) cells [2]: 80.66%; G0/G1 phase Percent [3]: 18.92%; G2/M phase Percent [3]: 6.45%; S phase Percent [3]: 71.83%; IC50 [4, 15]: 49.7 nM; IC50 [5, 15]: 18 nM; IC50 [6, 15]: 2.86 nM; inhibition at 10 µM [7]: 0%; inhibition at 10 µM [8]: 8.23%; inhibition at 10 µM [9]: 0%; inhibition at 10 µM [10]: 17.3%; inhibition at 10 µM [11]: 86.2%; inhibition at 10 µM [12]: 0%
3 | CNC(=O)c1cc(Oc2ccc3c(C(=O)Nc4ccc(C(C)C)cc4)cccc3c2)ccn1 [Compound 9b, 4-((5-((4-Isopropylphenyl)carbamoyl)naphthalen-2-yl)oxy)-N-methylpicolinamide] | 98.4% | 98.4% | 99.7% | 0.17 ± 0.012 µM | 
4 | CNC(=O)c1cc(Oc2ccc3c(C(=O)Nc4ccc(I)cc4)cccc3c2)ccn1 [Compound 9c, 4-((5-((4-Iodophenyl)carbamoyl)naphthalen-2-yl)oxy)-N-methylpicolinamide] | 92.7% | 88.6% | 98.9% | 0.67 ± 0.017 µM | 
5 | CNC(=O)c1cc(Oc2ccc3c(C(=O)Nc4ccc(OC)c(F)c4)cccc3c2)ccn1 [Compound 9d, 4-((5-((3-Fluoro-4-methoxyphenyl)carbamoyl)naphthalen-2-yl)oxy)-N-methylpicolinamide] | 97.4% | 98.2% | 99.6% | 0.54 ± 0.019 µM | 
6 | CNC(=O)c1cc(Oc2ccc3c(C(=O)Nc4ccc(N5CCOCC5)c(F)c4)cccc3c2)ccn1 [Compound 9e, 4-((5-((3-Fluoro-4-morpholinophenyl)carbamoyl)naphthalen-2-yl)oxy)-N-methylpicolinamide] | 42.1% | 24.9% | 76.3% | 4.46 ± 0.024 µM | % inhibition across the tested Raf kinases [14]: 24.93–76.30%; IC50 values (μM) against A375 ([13]; A375 cells): weak cytotoxic activity
7 | CNC(=O)c1cc(Oc2ccc3c(C(=O)Nc4ccc(F)cc4)cccc3c2)ccn1 [Compound 9f, 4-((5-((4-Fluorophenyl)carbamoyl)naphthalen-2-yl)oxy)-N-methylpicolinamide] | 74.7% | 75.8% | 96.5% | 0.44 ± 0.008 µM | 
8 | CNC(=O)c1cc(Oc2ccc3c(C(=O)Nc4ccc(C)c(C)c4)cccc3c2)ccn1 [Compound 9g, 4-((5-((3,4-Dimethylphenyl)carbamoyl)naphthalen-2-yl)oxy)-N-methylpicolinamide] | 99.3% | 100% | 99.8% | 1.42 ± 0.013 µM | 
9 | CNC(=O)c1cc(Oc2ccc3c(C(=O)Nc4cc(C)cc(Br)c4)cccc3c2)ccn1 [Compound 9h, 4-((5-((3-Bromo-5-methylphenyl)carbamoyl)naphthalen-2-yl)oxy)-N-methylpicolinamide] | 99.6% | 100% | 99.8% | 1.67 ± 0.032 µM | 
10 | CNC(=O)c1cc(Oc2ccc3c(C(=O)Nc4ccc(OC)c(Cl)c4)cccc3c2)ccn1 [Compound 9i, 4-((5-((3-Chloro-4-methoxyphenyl)carbamoyl)naphthalen-2-yl)oxy)-N-methylpicolinamide] | 99.7% | 100% | 99.6% | 1.75 ± 0.021 µM | 
11 | CNC(=O)c1cc(Oc2ccc(NC(=O)Nc3ccc(Cl)c(C(F)(F)F)c3)cc2)ccn1 [Sorafenib] |  |  |  | 0.92 ± 0.018 µM | N quadrant cells [2]: 12.49%; early apoptosis (E.A) cells [2]: 4.03%; late apoptosis (L.A) cells [2]: 4.34%; live (L) cells [2]: 79.14%; G0/G1 phase Percent [3]: 34.08%; G2/M phase Percent [3]: 13.41%; S phase Percent [3]: 49.72%; G0/G1 phase Percent ([3]; listed as sorafenib): 34.08%; G2/M phase Percent ([3]; listed as sorafenib): 13.41%; S phase Percent ([3]; listed as sorafenib): 49.72%
